# What was measured:
# Conditions in all cases: 3 weeks
# [1] = test system: broad-leaved weed; test: Test Example 7, flooded paddy pot dripping, herbicidal activity; assay type: in vivo
# Procedure: (§1) The application of the tetrahydrophthalimides (I) as herbicides will be illustratively shown in the following Examples wherein the phytotoxicity to cultivated plants and the herbicidal activity on weeds were evaluated as follows: the aerial parts of the test plants were cut off and weighed (fresh weight); the percentage of the fresh weight of the treated plant to that of the untreated plant was calculated with the latter fresh weight taken as 100; and the crop damage and the herbicidal activity were evaluated by the standard given in the table below. The rating values of phytotoxicity, 0 and 1, and those of herbicidal effect, 5 and 4, are generally regarded as satisfactory to protect cultivated plants and control weeds, respectively. The rating values in the paddy field test alone were calculated from the dry weight of the test plants.
# (§2) Wagner's pots (1/5000 are) were filled with paddy field soil and water was poured therein to make a flooded condition. Rice seedlings of the 3-leaf stage were transplanted and tubers of slender spikerush and arrowhead and the seeds of barnyardgrass, monochoria and broad-leaved weed were sowed therein and grown for 5 days. When germination occurs, a designed amount of the test compound formulated into an emulsifiable concentrate according to Preparation Example 2 was applied to the pots by dripping. The test plants were grown for a further 3 weeks, and herbicidal activity and phytotoxicity were examined. The herbicidal activity was evaluated in figures ranging from 0 to 5. The phytotoxicity to the crop plants was also indicated on the same standard as that of the herbicidal activity.
# [2] = test system: common purslane; test: Test Example 2, field foliar treatment, herbicidal activity; assay type: in vivo, Portulaca oleracea
# Procedure: as §1
# (§3) Seeds of corn and broad-leaved weeds such as cocklebur, common purslane and tall morningglory were sown in the field as previously laid up in ridges, each ridge having an upper width of 1 m. At the time when the corn grew up to the 6-leaf stage and the broad-leaved weeds up to 2 to 5-leaf stages, a designed amount of the test compound formulated into an emulsifiable concentrate according to Preparation Example 2 and dispersed in water was sprayed to the foliage of the test plants with three replications over the top by means of a small hand sprayer at a spray volume of 5 liters per are. After cultivation for 3 weeks, herbicidal activity and phytotoxicity were examined.
# [3] = test system: slender spikerush; test: Test Example 7, flooded paddy pot dripping, herbicidal activity; assay type: in vivo, Eleocharis acicularis
# Procedure: as §1, §2
# [4] = test system: corn; test: Test Example 2, field foliar treatment, phytotoxicity to corn; assay type: in vivo
# Procedure: as §1, §3
# [5] = test system: arrowhead; test: Test Example 7, flooded paddy pot dripping, herbicidal activity; assay type: in vivo, Sagittaria pygmaea
# Procedure: as §1, §2
# [6] = test system: monochoria; test: as above; assay type: in vivo, Monochoria vaginalis
# Procedure: as §1, §2
# [7] = test system: barnyardgrass; test: as above; assay type: in vivo, Echinochloa crus-galli
# Procedure: as §1, §2
# [8] = test system: tall morningglory; test: Test Example 2, field foliar treatment, herbicidal activity; assay type: in vivo, Ipomoea purpurea
# Procedure: as §1, §3
# [9] = test system: cocklebur; test: as above; assay type: in vivo, Xanthium pennsylvanicum
# Procedure: as §1, §3
# [10] = test system: rice plant; test: Test Example 7, flooded paddy pot dripping, phytotoxicity to rice plant; assay type: in vivo
# Procedure: as §1, §2
# Further: ranges in brackets are in %.
smiles,measurement,setting,value
"CCCCCOc1cc(N2C(=O)C3=C(CCCC3)C2=O)c(F)cc1Cl [Compound No. 7, N-(4-chloro-2-fluoro-5-n-amyloxyphenyl)-3,4,5,6-terahydrophthalimide]","Herbicidal activity, Broad-leaved weed",[1]; 1.25 g/are,5 (90-100)
same,"Herbicidal activity, Broad-leaved weed",[1]; 2.5 g/are,5 (90-100)
same,"Herbicidal activity, Broad-leaved weed",[1]; 5 g/are,5 (90-100)
same,"Herbicidal activity, Common purslane",[2]; 0.16 g/are,5 (0)
same,"Herbicidal activity, Common purslane",[2]; 0.32 g/are,5 (0)
same,"Herbicidal activity, Common purslane",[2]; 0.63 g/are,5 (0)
same,"Herbicidal activity, Slender spikerush",[3]; 1.25 g/are,4 (70-89)
same,"Herbicidal activity, Slender spikerush",[3]; 2.5 g/are,5 (90-100)
same,"Herbicidal activity, Slender spikerush",[3]; 5 g/are,5 (90-100)
same,"Phytotoxicity, Corn",[4]; 0.16 g/are,0 (100)
same,"Phytotoxicity, Corn",[4]; 0.32 g/are,0 (100)
same,"Phytotoxicity, Corn",[4]; 0.63 g/are,0 (100)
same,"Herbicidal activity, Allowhead",[5]; 1.25 g/are,3 (50-69)
same,"Herbicidal activity, Allowhead",[5]; 2.5 g/are,4 (70-89)
same,"Herbicidal activity, Allowhead",[5]; 5 g/are,5 (90-100)
same,"Herbicidal activity, Monochoria",[6]; 1.25 g/are,5 (90-100)
same,"Herbicidal activity, Monochoria",[6]; 2.5 g/are,5 (90-100)
same,"Herbicidal activity, Monochoria",[6]; 5 g/are,5 (90-100)
same,"Herbicidal activity, Barnyardgrass",[7]; 1.25 g/are,4 (70-89)
same,"Herbicidal activity, Barnyardgrass",[7]; 2.5 g/are,5 (90-100)
same,"Herbicidal activity, Barnyardgrass",[7]; 5 g/are,5 (90-100)
same,"Herbicidal activity, Tall morningglory",[8]; 0.16 g/are,2 (21-40)
same,"Herbicidal activity, Tall morningglory",[8]; 0.32 g/are,3 (11-20)
same,"Herbicidal activity, Tall morningglory",[8]; 0.63 g/are,4 (1-10)
same,"Herbicidal activity, Cocklebur",[9]; 0.16 g/are,4 (1-10)
same,"Herbicidal activity, Cocklebur",[9]; 0.32 g/are,4 (1-10)
same,"Herbicidal activity, Cocklebur",[9]; 0.63 g/are,5 (0)
same,"Phytotoxicity, Rice plant",[10]; 1.25 g/are,0 (0-9)
same,"Phytotoxicity, Rice plant",[10]; 2.5 g/are,0 (0-9)
same,"Phytotoxicity, Rice plant",[10]; 5 g/are,0 (0-9)

# Source: patent US5030760A, “Tetrahydrophthalimides, and their production and use” (Sumitomo Chemical Company, Ltd., priority 1981, dated 1991)
